Legend:
[1] = test system: pancreatic adenocarcinoma associated genes; test: TaqMan Array gene expression in PANC-1, normalized for GAPDH; conditions: 24 hs, CBD 3.8, MLT 200, AKBA 7.5 micrograms/ml
Procedure: Total RNA from untreated or CBD, MLT, AKBA alone and in combination treated cell lines was extracted using Rneasy Mini kit (Qiagen, Milan, Italy). One microgram of total RNA from each sample was subjected to reverse transcription in a total volume of 20 μL using the High-Capacity cDNA Archive Kit (Applied Biosystem, Foster City, […], USA) according to the instructions. cDNAs were analyzed by qRT-PCR performed using an IQ5 Multicolor Real time PCR Detection system. Quantitative real-time gene expression was performed with the TaqMan® Array Human Pancreatic Adenocarcinoma 96-well Plate, containing 92 assays to pancreatic adenocarcinoma associated genes and 4 assays to candidate endogenous control genes, was purchased (Thermo Fisher, Grand Island, NY, USA) and used to evaluate the treatments in modulating PDAC-related genes (Table 1). Measurement of different housekeeping genes (GAPDH; HPRT1; GUSB) on the samples was used to normalize mRNA content. The gene expression levels of treated cell lines were expressed as relative fold compared with untreated or vehicle-treated cells.
To elucidate the molecular events induced by CBD, MLT and AKBA alone and in combination, 92 genes involved in PDAC progression and aggressiveness were evaluated by Taqman Array. Both cell lines were treated with CBD, MLT and AKBA alone and in combination, and the molecular pathways of PDAC associated gene were evaluated.
Target mRNA levels were normalized for GAPDH expression.

[2] = test system: U251 Glioblastoma cell line; test: Cytotoxicity assay (MTT, 72 hours, daily administration) in U251; format: cell-based; conditions: Homo sapiens, U-251, read-out: % VIABILITY ± S.D.
Source text: (§1) The combinations were effective in other human tumor cell lines and we tested in glioblastoma cell line and endometrial cancer cell Additional tests include data obtained from two independent experiments, six wells for dose.

[3] = test system: PANC-1 cell line; test: Cytotoxicity assay (MTT, 72 hours, daily administration) in PANC-1; conditions: Homo sapiens, PANC-1, read-out: % VIABILITY ± S.D.
Procedure: Human pancreatic ductal adenocarcinoma (PANC-1 and MIAPaCa-2) cell lines were purchased by Sigma Aldrich (Milan, Italy) and cultured in DMEM high glucose medium (EuroClone, Milan, Italy) supplemented with 10% of fetal bovine serum (FBS), 2 mM L-glutamine, 100 IU/mL penicillin, 100 mg streptomycin and 1 mM sodium pyruvate. Cell lines were maintained at 37° C. with 5% CO2 and 95% of humidity.
3×10^4 cells/mL were seeded in 96-well plates in a final volume of 100 L/well. After one day of incubation, compounds or vehicles, alone or in combination, were added and six replicates were used for each treatment and all experiments were repeated three times. In all the experiments, the treatment was daily added, after washing with fresh medium. After 72 hours cell viability was investigated by adding 0.8 mg/mL of 3-[4,5-dimethylthiazol-2-yl]-2,5 diphenyl tetrazolium bromide (MTT) (Sigma Aldrich) to the media. After 3 h the supernatant was removed, and the pellet of salt crystals was solubilized with 100 μL/well of DMSO. The absorbance of the sample against a background control was measured at 570 nm using an ELISA reader microliter plate (BioTek Instruments, Winooski, VT, USA).
Cytotoxicity in PDAC cell lines: The effect of CBD, MLT and AKBA in reducing cell viability was evaluated at 72 hours, post daily administration, in PDAC cell lines. Cells were treated with different doses of CBD, MLT and AKBA (up to 1 mg) and percentage of cell viability was evaluated by the MTT assay. […] The compounds were administered daily for 72 hours, as in previous experiments at the desired doses. […] MTT assay was used to analyse the cell cytotoxicity.

[4] = test system: PCEM004a endometrial cancer cell line; test: Cytotoxicity assay (MTT, 72 hours, daily administration) in PCEM004a; format: cell-based; conditions: Homo sapiens, read-out: % VIABILITY ± S.D.
Source text: as §1

C=C(C)[C@@H]1CCC(C)=C[C@H]1c1c(O)cc(CCCCC)cc1O [CBD, 2-[(1R,6R)-3-methyl-6-prop-1-en-2-ylcyclohex-2-en-1-yl]-5-pentylbenzene-1,3-diol]
AKT3 mRNA relative expression ([1]; VEI 0.00): 0.00 | ARHGEF7 mRNA relative expression ([1]; VEI 0.00): 0.00 | BCL2 mRNA relative expression ([1]; VEI 0.00): 0.00 | CCND2 mRNA relative expression ([1]; VEI 0.00): 0.00 | CDKN2B mRNA relative expression ([1]; VEI 0.00): 0.35 | CYP2E1 mRNA relative expression ([1]; VEI 0.00): 0.00 | EGF mRNA relative expression ([1]; VEI 0.00): 0.00 | IGF1 mRNA relative expression ([1]; VEI 0.00): 0.00 | IL6 mRNA relative expression ([1]; VEI 0.00): 0.00 | KDR mRNA relative expression ([1]; VEI 0.00): 0.00 | KIT mRNA relative expression ([1]; VEI 0.00): 0.00 | MAPK3 mRNA relative expression ([1]; VEI 0.00): 0.01 | MMP1 mRNA relative expression ([1]; VEI 0.00): 0.00 | MMP3 mRNA relative expression ([1]; VEI 0.00): 0.00 | TGFA mRNA relative expression ([1]; VEI 0.00): 0.71 | TGFB2 mRNA relative expression ([1]; VEI 0.00): 0.08 | JAK2 mRNA relative expression ([1]; VEI 0.01): 0.01 | JAK3 mRNA relative expression ([1]; VEI 0.01): 0.01 | MMP7 mRNA relative expression ([1]; VEI 0.01): 0.01 | MMP9 mRNA relative expression ([1]; VEI 0.01): 0.01 | PK3CA mRNA relative expression ([1]; VEI 0.01): 0.02 | RAC2 mRNA relative expression ([1]; VEI 0.01): 0.01 | RB1 mRNA relative expression ([1]; VEI 0.01): 0.05 | TGFB3 mRNA relative expression ([1]; VEI 0.01): 0.00 | TGFBR1 mRNA relative expression ([1]; VEI 0.02): 0.03 | BRCA2 mRNA relative expression ([1]; VEI 0.03): 0.13 | CDKN2D mRNA relative expression ([1]; VEI 0.03): 0.03 | MDM2 mRNA relative expression ([1]; VEI 0.03): 0.04 | RHOB mRNA relative expression ([1]; VEI 0.03): 0.03 | CDKN2C mRNA relative expression ([1]; VEI 0.04): 0.03 | PK3R1 mRNA relative expression ([1]; VEI 0.04): 0.03 | PTGS2 mRNA relative expression ([1]; VEI 0.04): 0.00 | STATSB mRNA relative expression ([1]; VEI 0.04): 0.03 | MAPK1 mRNA relative expression ([1]; VEI 0.05): 0.06 | SMAD2 mRNA relative expression ([1]; VEI 0.05): 0.06 | CCND1 mRNA relative expression ([1]; VEI 0.06): 0.09 | MAP2K2 mRNA relative expression ([1]; VEI 0.06): 0.07 | PK3CD mRNA relative expression ([1]; VEI 0.06): 0.07 | TGFBR2 mRNA relative expression ([1]; VEI 0.06): 0.01 | VEGFA mRNA relative expression ([1]; VEI 0.06): 0.03 | VEGFB mRNA relative expression ([1]; VEI 0.06): 0.07 | CCNA2 mRNA relative expression ([1]; VEI 0.07): 0.01 | CCNE2 mRNA relative expression ([1]; VEI 0.07): 0.10 | EZF3 mRNA relative expression ([1]; VEI 0.07): 0.07 | SMAD4 mRNA relative expression ([1]; VEI 0.07): 0.07 | SOS1 mRNA relative expression ([1]; VEI 0.07): 0.06 | TGFB1 mRNA relative expression ([1]; VEI 0.07): 0.07 | MAP2K1 mRNA relative expression ([1]; VEI 0.08): 0.00 | MMP2 mRNA relative expression ([1]; VEI 0.08): 0.06 | VEGFC mRNA relative expression ([1]; VEI 0.08): 0.03 | CCNE1 mRNA relative expression ([1]; VEI 0.09): 0.08 | CDK2 mRNA relative expression ([1]; VEI 0.09): 0.13 | KRAS mRNA relative expression ([1]; VEI 0.09): 0.07 | RAC1 mRNA relative expression ([1]; VEI 0.09): 0.09 | REL mRNA relative expression ([1]; VEI 0.09): 0.10 | STAT2 mRNA relative expression ([1]; VEI 0.09): 0.03 | CDKN1B mRNA relative expression ([1]; VEI 0.10): 0.09 | CDKN2A mRNA relative expression ([1]; VEI 0.10): 0.22 | RELA mRNA relative expression ([1]; VEI 0.10): 0.06 | AKT1 mRNA relative expression ([1]; VEI 0.11): 0.09 | PK3CB mRNA relative expression ([1]; VEI 0.11): 0.08 | FIGF mRNA relative expression ([1]; VEI 0.14): 0.09 | TP53 mRNA relative expression ([1]; VEI 0.14): 0.24 | EZF4 mRNA relative expression ([1]; VEI 0.16): 0.16 | NFKB2 mRNA relative expression ([1]; VEI 0.16): 0.12 | EZF1 mRNA relative expression ([1]; VEI 0.17): 0.13 | SMAD3 mRNA relative expression ([1]; VEI 0.17): 0.16 | STAT1 mRNA relative expression ([1]; VEI 0.18): 0.10 | BRAF mRNA relative expression ([1]; VEI 0.22): 0.18 | BIRC5 mRNA relative expression ([1]; VEI 0.23): 0.09 | JAK1 mRNA relative expression ([1]; VEI 0.23): 0.22 | CDK4 mRNA relative expression ([1]; VEI 0.24): 0.21 | EGFR mRNA relative expression ([1]; VEI 0.24): 0.17 | RAF1 mRNA relative expression ([1]; VEI 0.25): 0.01 | CCNB1 mRNA relative expression ([1]; VEI 0.27): 0.31 | ERBB2 mRNA relative expression ([1]; VEI 0.27): 0.01 | SRC mRNA relative expression ([1]; VEI 0.27): 0.03 | GRB2 mRNA relative expression ([1]; VEI 0.31): 0.11 | BCL2L1 mRNA relative expression ([1]; VEI 0.35): 0.21 | HSP90AA1 mRNA relative expression ([1]; VEI 0.35): 0.35 | NFKB1 mRNA relative expression ([1]; VEI 0.35): 0.04 | RHOA mRNA relative expression ([1]; VEI 0.37): 0.30 | ELK1 mRNA relative expression ([1]; VEI 0.41): 0.07 | RELB mRNA relative expression ([1]; VEI 0.42): 0.23 | CDC42 mRNA relative expression ([1]; VEI 0.45): 0.04 | CDKN1A mRNA relative expression ([1]; VEI 0.49): 0.03 | AKT2 mRNA relative expression ([1]; VEI 0.50): 0.45 | HBEGF mRNA relative expression ([1]; VEI 0.53): 0.11 | NOTCH1 mRNA relative expression ([1]; VEI 1.03): 0.02 | STAT6 mRNA relative expression ([1]; VEI 1.38): 0.87 | STAT3 mRNA relative expression ([1]; VEI 4.45): 0.05 | viability at 1.9 µg/mL ([2]; CBD 1.9 micrograms/ml): 100 ± 7.1% | viability at 3.8 µg/mL ([2]; CBD 3.8 micrograms/ml): 100 ± 5.5% | viability at 7.6 µg/mL ([2]; CBD 7.6 micrograms/ml): 97 ± 10.1% | viability at 15.2 µg/mL ([2]; CBD 15.2 micrograms/ml): 65.2 ± 4.3% | viability at 1.9 µg/mL [3]: 86.5 ± 7.1% | viability at 3.8 µg/mL [3]: 66.4 ± 5.5% | viability at 7.6 µg/mL [3]: 13.1 ± 1.1% | viability at 15.2 µg/mL [3]: 7.9 ± 0.3% | viability at 1.9 µg/mL ([4]; CBD 1.9 micrograms/ml): 74.8 ± 7.2% | viability at 3.8 µg/mL ([4]; CBD 3.8 micrograms/ml): 93.2 ± 4.2% | viability at 7.6 µg/mL ([4]; CBD 7.6 micrograms/ml): 93.4 ± 5.4% | viability at 15.2 µg/mL ([4]; CBD 15.2 micrograms/ml): 50.4 ± 3.4%

Reference: US20240180872A1, “METHODS AND COMPOUNDS OF CANNABIDIOL, MELATONIN AND AKBA FOR TREATING PANCREATIC CANCER” (priority 2021, published 2024)
